Test results published in the supplement of paper PMC6045584.
± gives the standard deviation of the averaged measurements.

What was measured:
AFIMOXIFENE = compound: CC/C(=C(\c1ccc(O)cc1)c1ccc(OCCN(C)C)cc1)c1ccccc1 [AFIMOXIFENE]; experiment: surviving fraction relative to DMSO-only wells; higher = less growth inhibition; details: exposure time: 5 days
In short: (§1)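 Five days of continuous inhibitor exposure, at 0.5, 1, 5, 10, 50, 100, 500 and 1000 nM, followed a 24-hour period after log-phase tumour cell lines were seeded at 250–500 cells per well in 384-well plates. Surviving fraction was derived from CellTiter-Glo luminescence relative to the median of DMSO-only wells. Plates were read after 10 minutes at room temperature, and lines screened three times were kept only if replicate Pearson r >0.7 and median Z' >0.3.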

[1] = compound: CCc1cc(Nc2nccc(-c3c(-c4ccc(OC)c(C(=O)Nc5c(F)cccc5F)c4)nc4ccccn34)n2)c(OC)cc1N1CCC(N2CCN(S(C)(=O)=O)CC2)CC1; experiment: as above; details: exposure time: 5 days
In short: as §1

| Test System | surviving fraction (AFIMOXIFENE; 0.5 nM) | surviving fraction (AFIMOXIFENE; 1 nM) | surviving fraction (AFIMOXIFENE; 5 nM) | surviving fraction (AFIMOXIFENE; 10 nM) | surviving fraction (AFIMOXIFENE; 50 nM) | surviving fraction (AFIMOXIFENE; 100 nM) | surviving fraction (AFIMOXIFENE; 500 nM) | surviving fraction (AFIMOXIFENE; 1000 nM) | surviving fraction ([1]; 0.5 nM) | surviving fraction ([1]; 1 nM) | surviving fraction ([1]; 5 nM) | surviving fraction ([1]; 10 nM) | surviving fraction ([1]; 50 nM) | surviving fraction ([1]; 100 nM) | surviving fraction ([1]; 500 nM) | surviving fraction ([1]; 1000 nM) |
| --- | --- | --- | --- | --- | --- | --- | --- | --- | --- | --- | --- | --- | --- | --- | --- | --- |
| CCK81 LARGE INTESTINE | 0.822 ± 0.1 | 0.889 ± 0.095 | 0.866 ± 0.083 | 0.822 ± 0.09 | 0.987 ± 0.24 | 0.749 ± 0.051 | 0.932 ± 0.04 | 0.82 ± 0.027 |  |  |  |  |  |  |  |  |
| G292 BONE | 1.02 ± 0.016 | 1.01 ± 0.011 | 0.98 ± 0.033 | 1.02 ± 0.013 | 0.9545 ± 0.0072 | 1.015 ± 0.0096 | 0.903 ± 0.036 | 0.931 ± 0.048 | 1.03 ± 0.072 | 0.969 ± 0.032 | 1 ± 0.061 | 1 ± 0.023 | 1.03 ± 0.041 | 0.994 ± 0.013 | 1.018 ± 0.0097 | 0.975 ± 0.035 |
| HCC38 BREAST | 1.19 ± 0.1 | 1.1 ± 0.23 | 1.19 ± 0.19 | 1.2 ± 0.23 |  | 1.13 ± 0.18 | 0.99 ± 0.24 | 0.952 ± 0.08 | 1.09 ± 0.18 | 1.19 ± 0.28 | 1.1 ± 0.23 | 1.02 ± 0.23 | 0.855 ± 0.2 | 1.07 ± 0.17 | 0.923 ± 0.12 | 0.881 ± 0.13 |
| HCC70 BREAST | 1.05 ± 0.079 | 1.1 ± 0.027 | 1.08 ± 0.074 | 1.06 ± 0.03 | 1.19 ± 0.091 | 1.18 ± 0.062 | 1.04 ± 0.076 | 1.03 ± 0.071 | 1.08 ± 0.059 | 0.975 ± 0.12 | 1.07 ± 0.039 | 1.09 ± 0.1 | 1.08 ± 0.051 | 1.12 ± 0.096 | 1.03 ± 0.13 | 0.994 ± 0.052 |
| HMLE3 BREAST | 1.06 ± 0.032 | 1.11 ± 0.062 | 1.2 ± 0.014 | 1.06 ± 0.05 | 1.12 ± 0.06 | 1.2 ± 0.12 | 1.09 ± 0.1 | 1.13 ± 0.1 | 0.947 ± 0.037 | 0.931 ± 0.073 | 1 ± 0.013 | 1.09 ± 0.038 | 0.967 ± 0.066 | 0.979 ± 0.081 | 0.908 ± 0.049 | 0.834 ± 0.062 |
| HMT3552 BREAST | 1.05 ± 0.062 | 1.02 ± 0.053 |  | 1 ± 0.042 | 1.15 ± 0.07 | 1.18 ± 0.061 | 1.18 ± 0.034 | 1 ± 0.076 | 1.14 | 1.08 | 1.08 | 1.1 | 1.17 | 1.18 | 1.21 | 1.3 |
| HS57T BREAST | 1.04 ± 0.086 | 1.05 ± 0.088 | 1.12 ± 0.062 | 1.156 ± 0.011 | 1.12 ± 0.071 | 1.19 ± 0.044 | 1.09 ± 0.038 | 1.08 ± 0.057 | 0.949 ± 0.082 | 1.01 ± 0.063 | 1.05 ± 0.021 | 1.05 ± 0.018 | 1.02 ± 0.052 | 1.06 ± 0.085 | 0.992 ± 0.036 | 0.945 ± 0.024 |
| HS578T BREAST | 1.11 ± 0.14 | 0.963 ± 0.32 | 1.15 ± 0.17 | 1.01 ± 0.1 | 1.07 ± 0.062 | 1.24 ± 0.11 | 1.19 ± 0.19 | 1.21 ± 0.15 | 0.891 ± 0.1 | 0.952 ± 0.025 | 0.965 ± 0.12 | 0.902 ± 0.042 | 0.803 ± 0.064 | 0.88 ± 0.14 | 0.931 ± 0.022 | 0.776 ± 0.078 |
